Test results taken from patent publication US20230390224A1, “UNITARY ORAL DOSAGE FORM IN BASE OF SPHERICAL AND/OR SPHEROIDAL SHAPED PARTICLES” (ATOMIC PHARMACEUTICS INC., priority 2022, published 2023).
Counter-ions that a name gives are not always drawn.

Experiments:
[1] = cited from earlier work
[2] = Release of API from gel particles into liquid medium B (spectrophotometry; Weibull Fmax, Higuchi release rate); type: physicochemical; settings: liquid medium B and liquid medium C
Method: To the measurements of APIs release, the APIs concentrations were determined spectrophotometrically, by sampling in a Thermo Spectronic Genesys 10 UV equipment. Each of the measurements were performed in duplicate or more trials. The wavelengths occupied will depend on each API tested (for example, 243 nm for acetaminophen, 230 nm for naproxen).
To evaluate each of the experiments carried out and adjust the concentration points during the release experiments, various methods were used: zero order models, first order, Higuchi, Hixson-Crowell, square root of the mass, root 3/2 of the mass, Weibull and Korsmeyer-Peppas. The model that best fits the concentration points during the release experiments was a Weibull model (Vasiliki Papadopoulou, Kosmas Kosmidis, Marilena Vlachou, Panos Macheras, “On the use of the Weibull function for the discernment of drug release mechanisms,” International Journal of Pharmaceutics 309 (2006) 44-50).
An example of the surprising effects of modification of these formulation design factors is shown below for the same API (acetaminophen or paracetamol), as an example of the different effects that can be achieved using the same amount of API in all formulations (120 mg of total acetaminophen in each example). […]

[3] = cited from earlier work; remark: listed apart in the source

## CN(C)CCC(c1ccc(Cl)cc1)c1ccccn1 (stereo not shown) [Chlorphenamine maleate, chlorphenamine maleate]
[1]
  log P: 3.7

## Cc1cccc(Nc2ccccc2C(=O)O)c1C [Mefenamic acid, mefenamic acid]
[1]
  log P: 4.2
[2]
  release of API into the aqueous medium: no release
[3]
  solubility in oily media / oil phase: not soluble
  solubility in water: very poorly soluble

## CC(=O)Nc1ccc(O)cc1 [Acetaminophen, acetaminophen]
[1]
  log P: 4.6
[3]
  solubility in oily media / oil phase: poorly soluble
  solubility in water: poorly soluble

## CC(=O)Oc1ccccc1C(=O)O [Acetyl salicylic acid, acetyl salicylic acid]
[3]
  solubility in oily media / oil phase: slightly soluble
  solubility in water: soluble

## C=C(C)[C@@H]1CCC(C)=C[C@H]1c1c(O)cc(CCCCC)cc1O [CBD, cannabinoidiol]
[1]
  log P: 7.75
[3]
  solubility in oily media / oil phase: highly soluble
  solubility in water: very slightly soluble
